Measurements: US10682427B2, “Intra-operative imaging” (BRACCO IMAGING S.P.A., priority 2014, dated 2020)

Assays:
[1] = Determination of the molar extinction coefficient (UV-VIS absorbance, linear regression); type: physicochemical; conditions: in PBS
Description: Two standard stock solutions containing the NIR agent in PBS at 1000 μM (sol I: 1.27 mg, 0.884 mL) and 1250 μM (sol II: 7.03 mg, 3.915 mL) were prepared. Diluted standard solutions were then prepared as reported in Table A by diluting the stock solutions in an appropriate volumetric flask using PBS. The absorbance of each standard diluted solution was measured without any further dilution.
The absorbance of each diluted standard solutions was measured and the molar extinction coefficient of DA364 was calculated from the slope of the linear regression reported in FIG. 1. The measured extinction coefficient in this condition was 208500 M^−1·cm^−1 (corresponding to 83% of the theoretical value reported for Cy5.5 dye: 250000 M^−1·cm^−1).

[2] = target: αvβ1 integrin (Homo sapiens, UniProt P05556+P06756); test: In vitro competitive binding assay with biotinylated vitronectin; conditions: competitor biotinylated vitronectin 1 μg/mL, read-out: IC50 (vitronectine IC50)
Description: (§1) The affinity of DA364 for its specific targeted (the integrin αvβ3) and its crossreactivity for other integrins (e.g. αvβ1, αvβ5) was assessed by in vitro binding tests.
(§2) A 96-well microtiter plate (MediSorp, Nunc) was coated overnight at 4° C., with tested integrins (0.5 μg/mL, diluted in coating/washing buffer (20 mM Tris HCl pH 7.4; 150 mM NaCl; 1 mM MnCl2; 0.5 mM MgCl2; 2 mM CaCl2). After coating, the plate is rinsed with washing buffer and then incubated in blocking buffer (3% BSA in coating buffer) for 2 h at room temperature (RT) (24° C. in Thermomixer, under shaking). The plate was then rinsed in washing buffer and incubated at RT for 3 h with DA364 (concentration range from 5000 to 0.005 nM). DA364 solutions were prepared by serially diluting a stock solution of the NIR agent in 1% BSA in coating buffer in presence of biotinylated vitronectin (1 μg/mL, cod. HVN-U605, Molecular Innovations). The plate is then rinsed again and incubated with Streptavidin-HRP (cod.EG RPN 1051, GE Healthcare) (1:10000 in PBS) 1 h at RT, binding the biotinylated vitronectin. After additional washes in PBS, the plate was incubated with TMB solution (3,3′,5,5′-tetramethylbenzidine) (cod.T-0440, Sigma-Aldrich) for 5-10 min and the colorimetric reaction was then stopped by addition of 2 N sulfuric acid. The quantification of the IC50 for DA364 was performed by measuring the competitor (biotinylated vitronectin) by reading the absorbance at 450 nm. IC50 values were determined by least-square non-linear regression analysis.

[3] = target: αvβ3 integrin (Homo sapiens, UniProt P05106+P06756); test: as above; conditions: competitor biotinylated vitronectin 1 μg/mL, average value from a triplicate test, read-out: IC50 (vitronectine IC50)
Description: as §1, §2

[4] = target: αvβ5 integrin (Homo sapiens, UniProt P06756+P18084); test: as above; conditions: competitor biotinylated vitronectin 1 μg/mL, read-out: IC50 (vitronectine IC50)
Description: as §1, §2

[5] = tested on: A431 tumor; test: In vivo and ex vivo fluorescence imaging of tumor uptake (IVIS Spectrum); set-up: species or system mice
Description: (§3) A431 cells were collected and washed two times with PBS. Five million cells were resuspended in 0.1 mL of DMEM high glucose medium and subcutaneously injected in the right flank of all mice. Eleven days after A431 inoculation, U-87MG cells were collected and washed two times with PBS. Two million cells were resuspended in 0.1 mL of EMEM medium and subcutaneously injected in the left flank of same animals previously injected with A431 cells.
(§4) Three weeks after A431 tumor implantation five mice were administered with 1 nmol of DA364 for a total administration volume of 0.2 mL (inj. rate 1 mL/min). In vivo OI acquisitions have been carried out 5 min, 15 min, 30 min, 1 h, 2 h, 3 h, 4 h, 6 h, 24 h and 48 hours after intravenous administration of the fluorescent probe using the IVIS Spectrum optical imaging system (Perkin Elmer). During OI experiments animals were kept under 3-4% Sevofluorane gas anaesthesia (O2 97.0-96.0%). During anaesthesia animals body temperature has been stabilized at about 37° C. using a heated bed.
(§5) Following in vivo OI experiments, 48 hours after probes injection, animals were sacrificed. Tumors, liver, kidneys, heart and spleen were excised for ex vivo fluorescent signal measure on the whole excised tumor or organ.
(§6) Fluorescence intensity from U-87 MG and A431 tumors was measured in vivo together with the signal coming from the normal healthy tissues (background).
(§7) The fluorescent signal (expressed as Radiant Efficiency (RE): p/s/(μW/cm^2), where p is the photon count), was then measured on the excised ex vivo samples using the IVIS Spectrum optical imaging system (Perkin Elmer).

[6] = tested on: U-87MG tumor; test: as above; set-up: species or system mice
Description: as §3, §4, §5, §6, §7

[7] = Ex vivo fluorescent signal in excised organs (IVIS Spectrum); set-up: species or system mice; conditions: 48 hours after 1 nmol i.v.
Description: as §4, §5, §7

[8] = Normalized excitation and emission spectra; type: physicochemical
Text: The normalized excitation and emission spectra of the NIR agent in PBS (ex/em: 674/694; Stokes Shift: 20 nm) and in SERONORM (human-based control serum) (694/704, Stokes Shift 10 nm) are shown in FIG. 2. As shown in the figure, the interaction of the DA364 contrast agent with serum albumin promotes the shift of the emission maximum from 694 nm to 704 nm (in PBS and in SERONORM (human-based control serum) respectively) and also the reduction of the Stokes shift.

[9] = target: Human Serum Albumin (HSA) (Homo sapiens, UniProt P02768); test: In vitro binding assay towards human serum albumin (absorbance at 689 nm)
[10] = ex vivo, 48 hours after 1 nmol i.v.
[11] = SERONORM (human-based control serum)

IC50 [2]: 28 nM
IC50 [3]: 3.76 nM
IC50 [4]: 281 nM
Kd [9]: 34900 nM
association constant with HSA (ka) ([9]; PBS, 1 h at room temperature): 28670 ± 1140 M⁻¹
Compound: CC[N+]1=C(/C=C/C=C/C=C2/N(CCCCCC(=O)NC[C@@H]3C[C@@H]4CC[C@H]5C(=O)N[C@@H](CCCNC(=N)N)C(=O)NCC(=O)N[C@@H](CC(=O)O)C(=O)N[C@H]3C(=O)N45)c3ccc4c(S(=O)(=O)O)cc(S(=O)(=O)O)cc4c3C2(C)C)C(C)(C)c2c1ccc1c(S(=O)(=O)[O-])cc(S(=O)(=O)O)cc21 [DA364]
extinction coefficient as percent of the theoretical value reported for Cy5.5 dye [1]: 83%
molar extinction coefficient [1]: 208500 M⁻¹ cm⁻¹
tumor signal ratio with respect to the background ([5]; A431 tumor in vivo, 3 hours to 24 hours after injection): stable signal ratio
fluorescence intensity in A431 tumors relative to heart and spleen (background) [5, 10]: about 10 times
fluorescence intensity in A431 tumors relative to liver and kidney [5, 10]: comparable
Fluorescence Signal (Radiant Efficiency) ([5]; excised A431 tumor ex vivo, 48 hours after 1 nmol i.v.): 3.47E+08 p/s/(μW/cm^2)
visualization of tumor under skin (FIG. 9) ([5]; low-integrin expressing tumor A431, in vivo fluorescence imaging): clear visualization
tumor signal ratio with respect to the background ([6]; U-87 MG tumor in vivo, 3 hours to 24 hours after injection): stable signal ratio
fluorescence signal in U-87MG tumor relative to A431 tumor [6, 10]: about twice
Fluorescence Signal (Radiant Efficiency) ([6]; excised U87-MG tumor ex vivo, 48 hours after 1 nmol i.v.): 6.78E+08 p/s/(μW/cm^2)
Fluorescence Signal (Radiant Efficiency) ([7]; excised heart ex vivo): 4.61E+07 p/s/(μW/cm^2)
Fluorescence Signal (Radiant Efficiency) ([7]; excised kidney ex vivo): 3.55E+08 p/s/(μW/cm^2)
Fluorescence Signal (Radiant Efficiency) ([7]; excised liver ex vivo): 4.04E+08 p/s/(μW/cm^2)
Fluorescence Signal (Radiant Efficiency) ([7]; excised spleen ex vivo): 5.79E+07 p/s/(μW/cm^2)
Stokes Shift ([8]; PBS): 20 nm
emission maximum (em) ([8]; PBS): 694 nm
excitation maximum (ex) ([8]; PBS): 674 nm
Stokes Shift [8, 11]: 10 nm
emission maximum (em) [8, 11]: 704 nm
excitation maximum (ex) [8, 11]: 694 nm
